Assays:
APEH-1Dl [1] = target: T1, APEH-1Dl (Dicentrarchus labrax, UniProt A0A8C4H3D3); experiment: exopeptidase assay, fluorogenic AMC release; type: biochemical; conditions: 15 °C
T1 construct: native, purified from red blood cells; 80 kDa monomer, about 300 kDa homotetramer; N-terminus 1AAESQPATEE; deposited cDNA covers only 208 aa of the C-terminal part
Text: exopeptidase assay, fluorogenic AMC release on APEH-1Dl

APEH-1Dl [2] = target: T1, APEH-1Dl; experiment: exopeptidase (aminopeptidase) assay, pNA release; type: biochemical; conditions: 15 °C
Text: exopeptidase (aminopeptidase) assay, pNA release on APEH-1Dl

T1 sequence (A0A8C4H3D3 entry or part of it): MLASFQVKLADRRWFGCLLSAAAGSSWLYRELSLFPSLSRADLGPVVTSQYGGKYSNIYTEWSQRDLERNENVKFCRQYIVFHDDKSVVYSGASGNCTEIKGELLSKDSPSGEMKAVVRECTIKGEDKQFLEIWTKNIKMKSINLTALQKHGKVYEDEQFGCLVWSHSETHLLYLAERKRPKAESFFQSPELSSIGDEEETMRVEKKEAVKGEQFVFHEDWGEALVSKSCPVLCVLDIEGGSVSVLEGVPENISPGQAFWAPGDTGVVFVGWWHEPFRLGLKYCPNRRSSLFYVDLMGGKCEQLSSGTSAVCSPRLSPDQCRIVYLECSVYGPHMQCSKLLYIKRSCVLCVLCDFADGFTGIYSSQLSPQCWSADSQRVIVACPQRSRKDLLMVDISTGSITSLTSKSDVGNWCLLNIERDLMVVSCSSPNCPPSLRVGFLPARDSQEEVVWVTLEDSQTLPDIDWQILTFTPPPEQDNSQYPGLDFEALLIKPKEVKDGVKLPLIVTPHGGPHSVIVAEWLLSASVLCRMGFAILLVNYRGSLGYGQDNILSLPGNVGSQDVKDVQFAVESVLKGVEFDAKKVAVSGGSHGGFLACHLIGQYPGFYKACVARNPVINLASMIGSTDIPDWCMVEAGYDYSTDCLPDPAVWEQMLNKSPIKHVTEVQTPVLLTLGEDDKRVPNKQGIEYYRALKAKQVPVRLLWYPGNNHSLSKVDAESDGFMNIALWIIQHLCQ

Km (APEH-1Dl [1]) [µM]	Km (APEH-1Dl [2]) [µM]	SMILES
52		CSCC[C@H](NC(C)=O)C(=O)Nc1ccc2c(C)cc(=O)oc2c1 [Ac-Met-AMC]
	28	CC(=O)N[C@@H](C)C(=O)Nc1ccc([N+](=O)[O-])cc1 [Ac-Ala-pNA]
